US10421964B2, “UNA oligomers and compositions for treating amyloidosis” (Arcturus Therapeutics, Inc., priority 2015, dated 2019)
[UNA] = unlocked nucleic acid; m = 2'-O-methyl; r = 2'-OH (RNA)

What was measured:
[1] = system: V30M gene reporter variant (nucleotide sequence 264 to 304 of human TTR containing the point mutation at position 284); experiment: PSICHECK reporter assay against V30M gene reporter variant; format: cell-based; details: for effectiveness against V30M compared with V30V: V30V and V30M gene reporter variants; for selectivity against V30M over V30V: IC50 against V30V over IC50 against V30M; for IC50: V30M gene reporter variant
Protocol: (§1) Conventional siRNAs that are complementary to the […] mRNA were tiled around position 284. […] Positions 5, 9, 14 and 15 appear to be more accessible to silencing than other positions. […] Four conventional siRNA variations, namely V30M-P5, V30M-P9, V30M-P14, and V30M-P15, were prepared.
(§2) Thus, the selectivity of the conventional siRNAs against V30M over V30V was no more than 5.6.

Transthyretin TTR mRNA = experiment: Knockdown of TTR protein in plasma of Cynomolgus monkeys after single IV dose of liposomal UNA oligomer (LC-MS/MS SRM); format: in vivo, Cynomolgus monkeys (Macaca fascicularis)
Protocol: A single-dose, pharmacokinetic and pharmacodynamic study of liposomally formulated UNA Oligomers targeting transthyretin (TTR) mRNA following intravenous infusion in Cynomolgus monkeys was performed.
Cynomolgus monkeys (Macaca fascicularis) were selected for this study because the TTR mRNA of Cynomolgus monkeys is homologous to human TTR mRNA, making them a good model for screening the potency of UNA oligomers targeting to TTR mRNA.
In this study, the knockdown of Transthyretin protein was evaluated as a result of treatment with UNA oligomers targeting Transthyretin TTR mRNA, based on SEQ ID NOs:46/86, 59/99, and 60/100, delivered in a liposomal formulation to male Cynomolgus monkeys. Measurements were made following a single intravenous (IV) dose administration. TTR protein concentration in plasma samples was assessed by LC-MS/MS at various time points.
Animals in Groups 1 through 8 were administered the test articles on Day 1 at 0.3 mg/kg, dose volume 6.25 mL/kg, concentration 0.048 mg/mL. Doses were administered as a 15-minute intravenous (IV) infusion, +1 minute, using a pump and disposable syringe.
For each animal, infusion start and end times were recorded; and subsequent sample collection target times were determined based on infusion end time (t=0). All blood specimens, approximately 1 mL, were collected by venipuncture from a peripheral vein from restrained, conscious animals.
The Monkey TTR SRM assay was used, which is a high throughput absolute protein quantitation assay using Selected Reaction Monitoring (SRM) technology platform. In a single SRM assay, the panel can multiplex up to 200 proteins. The assay was performed on a targeted absolute protein quantitation platform, where the key technology was SRM, sometimes also referred to as Multiple Reaction Monitoring (MRM). In a triple-quadrupole (QQQ) mass spectrometer, SRM/MRM is a tandem selection process where selecting peptides by precursor m/z is followed by selecting fragmentations (transitions) of the targeted peptide.

[2] = system: V30V gene reporter variant (nucleotide sequence 264 to 304 of human TTR without the point mutation at position 284); experiment: PSICHECK reporter assay against V30V gene reporter variant; format: cell-based
Protocol: as §1, §2

Row | Substance | activity compared to the conventional siRNA, each targeted to V30M [1] | selectivity against V30M over V30V compared to the conventional siRNA [1] | silencing V30M TTR [1] | effectiveness against V30M compared with V30V [1] | also measured
1 | ĞCCAUGCAUGUGUUCAGAAŨmU / UUCUGAACACAUGCAŨGGCŨmU (chain 1 GCCAUGCAUGUGUUCAGAAUU; chain 2 UUCUGAACACAUGCAUGGCUU; siRNA; chain 1: sugars from the 5' end [UNA]1 r18 [UNA]1 m1, backbone not given here; chain 2: sugars from the 5' end r15 [UNA]1 r3 [UNA]1 m1, backbone not given here) [P16U16] | superior to the activity of the conventional siRNA V30M-P16 | substantially greater than for the conventional siRNA V30M-P16 | effective in silencing V30M TTR | more effective against V30M than V30V | 
2 | ŨAACCAAGAGUAUUCCAUUŨmU / AAUGGAAUACUCUUGGUUAŨmU (chain 1 UAACCAAGAGUAUUCCAUUUU; chain 2 AAUGGAAUACUCUUGGUUAUU; siRNA; chain 1: sugars from the 5' end [UNA]1 r18 [UNA]1 m1, backbone not given here; chain 2: sugars from the 5' end r19 [UNA]1 m1, backbone not given here) [SEQ ID NO:60/100] |  |  |  |  | knockdown of TTR (Transthyretin TTR mRNA; at 20 days, single IV dose 0.3 mg/kg, primates): over 91%; knockdown of TTR (Transthyretin TTR mRNA; continuous duration of more than 20 days, single IV dose 0.3 mg/kg, primates): more than 70%; TTR protein levels (Transthyretin TTR mRNA; continuous duration of more than one month (30 days), single injection, primates): below 50%; knockdown of Transthyretin protein in vivo (Transthyretin TTR mRNA; liposomal formulation, male Cynomolgus monkeys, single IV dose 0.3 mg/kg, plasma): achieved
3 | ĞGCCAUGCAUGUGUUCAGAŨmU / UCUGAAĈACAUGCAUGGCCŨmU (chain 1 GGCCAUGCAUGUGUUCAGAUU; chain 2 UCUGAACACAUGCAUGGCCUU; siRNA; chain 1: sugars from the 5' end [UNA]1 r18 [UNA]1 m1, backbone not given here; chain 2: sugars from the 5' end r6 [UNA]1 r12 [UNA]1 m1, backbone not given here) [P15U7] |  | substantially greater than for the conventional siRNA V30M-P15 | effective in silencing V30M TTR | more effective against V30M than V30V | 
4 | ĞGCCAUGCAUGUGUUCAGAŨmU / UCUGAACACAUGCÃUGGCCŨmU (chain 1 GGCCAUGCAUGUGUUCAGAUU; chain 2 UCUGAACACAUGCAUGGCCUU; siRNA; chain 1: sugars from the 5' end [UNA]1 r18 [UNA]1 m1, backbone not given here; chain 2: sugars from the 5' end r13 [UNA]1 r5 [UNA]1 m1, backbone not given here) [P15U14] |  |  | effective in silencing V30M TTR |  | 
5 | ĞGCCAUGCAUGUGUUCAGAŨmU / UCUGAÃCACAUGCAUGGCCŨmU (chain 1 GGCCAUGCAUGUGUUCAGAUU; chain 2 UCUGAACACAUGCAUGGCCUU; siRNA; chain 1: sugars from the 5' end [UNA]1 r18 [UNA]1 m1, backbone not given here; chain 2: sugars from the 5' end r5 [UNA]1 r13 [UNA]1 m1, backbone not given here) [P15U6] | superior to the activity of the conventional siRNA V30M-P15 | substantially greater than for the conventional siRNA V30M-P15 | effective in silencing V30M TTR | more effective against V30M than V30V | IC50 [2]: 0.92 nM; superiority of selectivity over the selectivity of 5.6 of the conventional siRNA [1]: 4 fold; selectivity against V30M over V30V [1]: 24; IC50 [1]: 0.0376 nM
6 | ĞCCAUGCAUGUGUUCAGAAŨmU / UUCUGAACACAUGCAUĞGCŨmU (chain 1 GCCAUGCAUGUGUUCAGAAUU; chain 2 UUCUGAACACAUGCAUGGCUU; siRNA; chain 1: sugars from the 5' end [UNA]1 r18 [UNA]1 m1, backbone not given here; chain 2: sugars from the 5' end r16 [UNA]1 r2 [UNA]1 m1, backbone not given here) [P16U17] |  |  | effective in silencing V30M TTR |  | 
7 | ĞCCAUGCAUGUGUUCAGAAŨmU / UUCUGAACACAUGCÃUGGCŨmU (chain 1 GCCAUGCAUGUGUUCAGAAUU; chain 2 UUCUGAACACAUGCAUGGCUU; siRNA; chain 1: sugars from the 5' end [UNA]1 r18 [UNA]1 m1, backbone not given here; chain 2: sugars from the 5' end r14 [UNA]1 r4 [UNA]1 m1, backbone not given here) [P16U15] | superior to the activity of the conventional siRNA V30M-P16 | substantially greater than for the conventional siRNA V30M-P16 | effective in silencing V30M TTR | more effective against V30M than V30V | 
8 | ĞGCCAUGCAUGUGUUCAGAŨmU / UCUGAACACAUGCAŨGGCCŨmU (chain 1 GGCCAUGCAUGUGUUCAGAUU; chain 2 UCUGAACACAUGCAUGGCCUU; siRNA; chain 1: sugars from the 5' end [UNA]1 r18 [UNA]1 m1, backbone not given here; chain 2: sugars from the 5' end r14 [UNA]1 r4 [UNA]1 m1, backbone not given here) [P15U15] |  | substantially greater than for the conventional siRNA V30M-P15 | effective in silencing V30M TTR | more effective against V30M than V30V | 
9 | ĞCCAUGCAUGUGUUCAGAAŨmU / UUCUGAÃCACAUGCAUGGCŨmU (chain 1 GCCAUGCAUGUGUUCAGAAUU; chain 2 UUCUGAACACAUGCAUGGCUU; siRNA; chain 1: sugars from the 5' end [UNA]1 r18 [UNA]1 m1, backbone not given here; chain 2: sugars from the 5' end r6 [UNA]1 r12 [UNA]1 m1, backbone not given here) [P16U7] | superior to the activity of the conventional siRNA V30M-P16 | substantially greater than for the conventional siRNA V30M-P16 | effective in silencing V30M TTR | more effective against V30M than V30V | 
10 | ĞCCAUGCAUGUGUUCAGAAŨmU / UUCUGÃACACAUGCAUGGCŨmU (chain 1 GCCAUGCAUGUGUUCAGAAUU; chain 2 UUCUGAACACAUGCAUGGCUU; siRNA; chain 1: sugars from the 5' end [UNA]1 r18 [UNA]1 m1, backbone not given here; chain 2: sugars from the 5' end r5 [UNA]1 r13 [UNA]1 m1, backbone not given here) [P16U6] | superior to the activity of the conventional siRNA V30M-P16 | substantially greater than for the conventional siRNA V30M-P16 | effective in silencing V30M TTR | more effective against V30M than V30V | IC50 [2]: 2.12 nM; superiority of selectivity over the selectivity of 5.6 of the conventional siRNA [1]: 4 fold; selectivity against V30M over V30V [1]: 23; IC50 [1]: 0.0924 nM
11 | ĞGCCAUGCAUGUGUUCAGAŨmU / UCUGAACACAUGCAUĞGCCŨmU (chain 1 GGCCAUGCAUGUGUUCAGAUU; chain 2 UCUGAACACAUGCAUGGCCUU; siRNA; chain 1: sugars from the 5' end [UNA]1 r18 [UNA]1 m1, backbone not given here; chain 2: sugars from the 5' end r15 [UNA]1 r3 [UNA]1 m1, backbone not given here) [P15U16] |  | substantially greater than for the conventional siRNA V30M-P15 | effective in silencing V30M TTR | more effective against V30M than V30V | 
